Like-named read-outs stand apart in the source and are kept apart here.
Assays:
[1] = test system: NCI-H358 cells; assay: 3D cell proliferation inhibition assay (CellTiter-Glo 3D); type: cell-based; conditions: Homo sapiens, read-out: Activity by IC50 (nM), inhibitory activity against NCI-H358 cell proliferation
Excerpt: The cell proliferation inhibition assay was used to determine the abilities of compounds to inhibit the proliferation and growth of SOS1-mediated tumor cells at the in vitro 3D cellular level. The CellTiter-Glo® 3D Cell Viability Assay was employed.
• NCI-H358: KRAS G12C-mutated non-small cell lung cancer (NSCLC); • CellTiter-Glo® 3D Cell Viability Assay, Promega, G9683; • RPMI 1640 medium, Gibco, A10491-01; • FBS, Gibco, 10099141C.
• Day 1: NCI-H358 cells were passaged into a T75 cell culture flask. • Day 3: the medium was removed; the cells were rinsed once with DPBS, and digested at room temperature or at 37° C. using 2 mL of TrypLE™ Express Enzyme until the cells were detached; the resultant was added with 5 mL of fresh medium, and centrifuged at 1000 rpm for 5 min; the supernatant was discarded, and 5 mL of fresh medium was added to resuspend the cells; the cells were counted and then seeded at 40 μL/well in a 3D cell culture plate (Echo Qualified 384-Well Polypropylene Microplate 2.0, Clear, Flat Bottom).
• Day 1: the test compound was dissolved in DMSO to prepare a 10 mM stock solution; after a 1000-fold dilution with DMSO, the test compound solution was subjected to ten 3-fold serial dilutions starting from a concentration of 10 μM; 200 nL of the compound solution was added to the culture plate. • Day 8: CTG 3D reagent was added at 40 μL/well, and the signal was detected using Envision.
The IC50 values of the compounds were fitted using the Graphpad Prism 8 nonlinear regression equation.
[formula] • X: Log of cpd concentration; • Y: Percent inhibition (% inh).

[2] = target: T1, K-Ras^G12D and hSOS1 (Homo sapiens, UniProt Q07889); assay: K-Ras G12D and hSOS1 binding assay (HTRF); conditions: inhibition of binding of K-Ras G12D to hSOS1, HTRF; read-out: Activity by IC50 (nM), SOS1 inhibitory activity
T1 construct: variant: G12D
T1 sequence (Q07889 whole entry, looked up, stated change not applied): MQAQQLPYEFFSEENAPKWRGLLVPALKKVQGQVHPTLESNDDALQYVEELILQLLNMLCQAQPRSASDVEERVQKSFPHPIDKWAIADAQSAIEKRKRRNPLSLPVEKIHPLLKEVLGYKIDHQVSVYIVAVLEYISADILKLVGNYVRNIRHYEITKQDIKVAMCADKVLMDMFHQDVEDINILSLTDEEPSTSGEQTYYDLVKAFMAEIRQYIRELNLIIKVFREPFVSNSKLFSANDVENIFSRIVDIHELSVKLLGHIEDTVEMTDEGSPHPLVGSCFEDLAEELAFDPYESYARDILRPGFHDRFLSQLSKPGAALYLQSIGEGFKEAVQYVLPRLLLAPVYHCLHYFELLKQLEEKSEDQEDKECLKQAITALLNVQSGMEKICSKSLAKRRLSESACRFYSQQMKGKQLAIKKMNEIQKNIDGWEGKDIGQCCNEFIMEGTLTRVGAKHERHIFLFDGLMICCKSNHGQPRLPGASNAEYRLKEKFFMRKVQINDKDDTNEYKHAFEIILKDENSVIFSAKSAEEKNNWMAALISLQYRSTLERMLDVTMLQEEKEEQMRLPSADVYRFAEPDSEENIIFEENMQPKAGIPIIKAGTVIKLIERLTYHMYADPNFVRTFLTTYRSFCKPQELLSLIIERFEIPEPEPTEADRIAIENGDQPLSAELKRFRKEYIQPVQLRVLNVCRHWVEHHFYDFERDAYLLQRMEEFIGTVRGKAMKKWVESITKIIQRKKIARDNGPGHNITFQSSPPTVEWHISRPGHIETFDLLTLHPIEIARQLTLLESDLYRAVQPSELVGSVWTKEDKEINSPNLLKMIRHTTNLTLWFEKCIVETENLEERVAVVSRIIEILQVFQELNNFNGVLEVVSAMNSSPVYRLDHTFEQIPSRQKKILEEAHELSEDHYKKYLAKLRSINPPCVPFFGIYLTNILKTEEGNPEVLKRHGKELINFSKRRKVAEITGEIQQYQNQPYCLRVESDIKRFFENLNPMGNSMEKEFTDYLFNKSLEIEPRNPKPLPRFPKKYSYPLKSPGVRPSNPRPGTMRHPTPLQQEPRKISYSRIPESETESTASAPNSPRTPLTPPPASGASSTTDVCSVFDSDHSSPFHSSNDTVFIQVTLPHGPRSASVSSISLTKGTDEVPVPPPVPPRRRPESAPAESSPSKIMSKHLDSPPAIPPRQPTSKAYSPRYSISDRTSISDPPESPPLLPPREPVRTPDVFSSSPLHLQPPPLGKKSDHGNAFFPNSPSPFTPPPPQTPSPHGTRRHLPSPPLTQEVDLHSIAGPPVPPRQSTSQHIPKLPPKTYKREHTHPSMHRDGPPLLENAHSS
Experimental: 1. K-Ras^G12D and hSOS1 Binding Assay
This assay could be used to examine the potency of the compounds to inhibit the protein-protein interaction between SOS1 and KRAS G12D. The binding of anti-GSK-Europium (FRET donor)-conjugated GST-KRas^G12D to anti-6His-XL665-conjugated His-tagged hSOS1 ([…]) was detected by homogeneous time-resolved fluorescence (HTRF), and the inhibitory effects of the compounds on the binding of K-Ras^G12D to hSOS1 were determined.
• Buffer (5 mM HEPES pH 7.4, 150 mM NaCl, 10 mM EDTA, 1 mM DTT, 0.05% BAS pH 7.0, 0.0025% 1gepal, and 100 mM KF); • GST-tagged hK-RasG12D (produced in-house); • His-tagged hSOS1 (produced in-house);
• 10 nM (final concentration) GST-hK-RasG12D and 2 nM (final concentration) anti-GSK-Europium in assay buffer were mixed, and set aside at room temperature.
• 20 nM (final concentration) His-tagged hSOS1 and 10 nM (final concentration) anti-6His-XL665 in assay buffer were mixed, and set aside at room temperature.
The test compound was dissolved in DMSO at a concentration of 100 times the assay concentration. 50 nL of the solution of compound was pipetted by Hummingbird liquid handler or Echo acoustic system to a black microassay plate.
All the experimental steps were conducted at 20° C. In the experiment, 2.5 μL of the liquid mixture of Ras was added to all wells of the assay plate using a Multidrop dispenser. After pre-incubation for 2 min, 2.5 μL of the liquid mixture of SOS was added to all the test wells other than the marginal wells, and 2.5 μL of the […], as a control, was added to the marginal wells. After incubation for 60 min, the assay plate passed through the HTRF module of Pheraster (excitation light: 337 nm, emission light 1: 620 nm, emission light 2: 665 nm).
The IC50 values were calculated and analyzed using a four-parameter logistic regression model.

[3] = 192 h, NCI-H358 (KRAS G12C-mutated NSCLC), 3D culture, CTG 3D read on Day 8

For `CC(=O)N1CC=C(c2cc3c(N[C@H](C)c4cccc(C(F)(F)F)c4)nc(C)nc3n3cnnc23)CC1` [Example 2], which IC50 [1, 3] is on record?
Its IC50 is 100 to 500 nM.

What about the IC50 [2] of the same compound?
The IC50 was 10 to 50 nM.

How did the IC50 [1, 3] turn out when `Cc1nc(N[C@H](C)c2cccc(C(F)(F)F)c2)c2cc(N3CCN(C)CC3)c3nncn3c2n1` [Example 3] was run?
The IC50 was 100 to 500 nM.

And the IC50 [2]?
Its IC50 is 10 to 50 nM.

With `Cc1nc(N[C@H](C)c2cccc(C(F)(F)F)c2)c2cc(N3CCOCC3)c3nncn3c2n1` [Example 4] as the compound, how does the IC50 [1, 3] read?
The IC50 was 100 to 500 nM.

And the IC50 [2]?
The IC50 was 10 to 50 nM.

With `Cc1nc(N[C@H](C)c2cc(N)cc(C(F)(F)F)c2)c2c(n1)N1CCN=C1C(c1ccn(C)c(=O)c1)=C2` [Example 6] as the compound, how does the IC50 ([1]; NCI-H358, 192 h) read?
The IC50 was less than 50 nM.

With `Cc1nc(N[C@H](C)c2cccc(C(F)F)c2F)c2c(n1)N1CCN=C1C(c1ccn(C)c(=O)c1)=C2` [Example 7] as the compound, how does the IC50 ([1]; NCI-H358, 192 h) read?
Its IC50 is less than 50 nM.

With `Cc1nc(N[C@H](C)c2cccc(C(F)F)c2F)c2cc(-c3ccn(C)c(=O)c3)n3cnnc3c2n1` [Example 9] as the compound, how does the IC50 [2] read?
The IC50 was 10 to 50 nM.

Which IC50 [2] does the source give for `Cc1nc(N[C@H](C)c2cccc(C(F)(F)F)c2F)c2cc(-c3ccn(C)c(=O)c3)n3cnnc3c2n1` [Example 10] here?
Its IC50 is 10 to 50 nM.

Which results are given for `Cc1nc(N[C@H](C)c2cccc(C(F)F)c2F)c2c(n1)N1CCN=C1C(c1ccc(=O)[nH]c1)=C2` [Example 12]?
IC50 [1, 3]: 100 to 500 nM; IC50 [2]: < 10 nM

Which IC50 [1, 3] does the source give for `CC(=O)N1CC=C(C2=Cc3c(N[C@H](C)c4cccc(C(F)F)c4F)nc(C)nc3N3CCN=C23)CC1` [Example 31] here?
The IC50 was less than 50 nM.

What about the IC50 [2] of the same compound?
Its IC50 is 10 to 50 nM.

How did the IC50 [1, 3] turn out when `Cc1nc(N[C@H](C)c2cccc(C(F)(F)F)c2)c2c(n1)N1CCN=C1C(c1ccc(=O)n(C)c1)=C2` [Example 65] was run?
The IC50 was 100 to 500 nM.

And the IC50 [2]?
The IC50 was 10 to 50 nM.

Which results are given for `Cc1nc(N[C@H](C)c2cccc(C(F)(F)CO)c2)c2c(n1)N1CCN=C1C(c1ccc(=O)n(C)c1)=C2` [Example 71]?
IC50 [1, 3]: 100 to 500 nM; IC50 [2]: < 10 nM

Which IC50 [1, 3] does the source give for `Cc1nc(N[C@H](C)c2cccc(C(F)(F)F)c2)c2c(n1)N1CCN=C1C(c1cccnc1)=C2` [Example 94] here?
Its IC50 is 100 to 500 nM.

With `Cc1nc(N[C@H](C)c2cccc(C(F)(F)F)c2)c2c(n1)N1CCN=C1C(c1cncc(C#N)c1)=C2` [Example 95] as the compound, how does the IC50 [1, 3] read?
Its IC50 is 100 to 500 nM.

Which results are given for `Cc1nc(N[C@H](C)c2cccc(C(F)(F)F)c2)c2c(n1)N1CCN=C1C(c1ccc(=O)n(CCO)c1)=C2` [Example 97]?
IC50 [1, 3]: 100 to 500 nM; IC50 [2]: < 10 nM

How did the IC50 [1, 3] turn out when `CCn1cc(C2=Cc3c(N[C@H](C)c4cccc(C(F)(F)F)c4)nc(C)nc3N3CCN=C23)ccc1=O` [Example 98] was run?
The IC50 was 100 to 500 nM.

And the IC50 [2]?
The IC50 was less than 10 nM.

How did the IC50 [1, 3] turn out when `Cc1nc(N[C@H](C)c2cccc(C(F)(F)F)c2)c2c(n1)N1CCN=C1C(c1cccn(C)c1=O)=C2` [Example 99] was run?
Its IC50 is 100 to 500 nM.

And the IC50 [2]?
The IC50 was 10 to 50 nM.

`COCCn1cc(C2=Cc3c(N[C@H](C)c4cccc(C(F)(F)F)c4)nc(C)nc3N3CCN=C23)ccc1=O` [Example 100] was tested. Which IC50 [1, 3] did it give?
Its IC50 is 100 to 500 nM.

How did the IC50 [1, 3] turn out when `Cc1nc(N[C@H](C)c2cccc(C(F)(F)F)c2)c2c(n1)N1CCN=C1C(c1ccc(=O)n(CC(F)F)c1)=C2` [Example 101] was run?
Its IC50 is 100 to 500 nM.

Which IC50 [1, 3] does the source give for `Cc1nc(N[C@H](C)c2cccc(C(F)(F)F)c2)c2c(n1)N1CCN=C1C(c1cccc(=O)n1C)=C2` [Example 102] here?
The IC50 was 100 to 500 nM.

With `Cc1nc(N[C@H](C)c2cccc(C(F)(F)F)c2)c2c(n1)N1CCN=C1C(c1cnc(=O)n(C)c1)=C2` [Example 103] as the compound, how does the IC50 [1, 3] read?
Its IC50 is 100 to 500 nM.

`Cc1nc(N[C@H](C)c2cccc(C(F)(F)F)c2)c2c(n1)N1CCN=C1C(c1cn(C)c(=O)n(C)c1=O)=C2` [Example 104] was tested. Which IC50 [1, 3] did it give?
The IC50 was 100 to 500 nM.

Which IC50 [1, 3] does the source give for `Cc1nc(N[C@H](C)c2cccc(C(F)(F)F)c2)c2c(n1)N1CCN=C1C(c1ccc(=O)n(C(C)C)c1)=C2` [Example 105] here?
The IC50 was 100 to 500 nM.

Which IC50 [1, 3] does the source give for `Cc1nc(N[C@H](C)c2cccc(C(F)(F)F)c2)c2c(n1)N1CCN=C1C(c1cc(C)c(=O)n(C)c1)=C2` [Example 106] here?
Its IC50 is 100 to 500 nM.

Which IC50 [1, 3] does the source give for `Cc1nc(N[C@H](C)c2cccc(C(F)(F)F)c2)c2c(n1)N1CCN=C1C(c1ccn(CCO)c(=O)c1)=C2` [Example 107] here?
The IC50 was 100 to 500 nM.

Which IC50 [1, 3] does the source give for `Cc1nc(N[C@H](C)c2cccc(C(F)(F)F)c2)c2c(n1)N1CCN=C1C(c1ccn(C3COC3)c(=O)c1)=C2` [Example 108] here?
Its IC50 is 50 to 100 nM.

For `[2H]C([2H])([2H])n1ccc(C2=Cc3c(N[C@H](C)c4cccc(C(F)(F)F)c4)nc(C)nc3N3CCN=C23)cc1=O` [Example 109], which IC50 [1, 3] is on record?
Its IC50 is 50 to 100 nM.

And the IC50 [2]?
The IC50 was 10 to 50 nM.

How did the IC50 [1, 3] turn out when `C[C@@H](Nc1nc(C2CC2)nc2c1C=C(c1ccn(C)c(=O)c1)C1=NCCN12)c1cccc(C(F)(F)F)c1` [Example 110] was run?
Its IC50 is 100 to 500 nM.

For `C[C@@H](Nc1nc(C2CC2)nc2c1C=C(c1ccc(=O)n(C)c1)C1=NCCN12)c1cccc(C(F)(F)F)c1` [Example 111], which IC50 [1, 3] is on record?
Its IC50 is 100 to 500 nM.

Which IC50 [1, 3] does the source give for `Cc1nc(N[C@H](C)c2cccc(C(F)(F)F)c2)c2c(n1)N1CCN=C1C(c1ccn(CF)c(=O)c1)=C2` [Example 113] here?
The IC50 was 100 to 500 nM.

With `Cc1nc(N[C@H](C)c2cc(C(F)(F)F)ccn2)c2c(n1)N1CCN=C1C(c1ccn(C)c(=O)c1)=C2` [Example 117] as the compound, how does the IC50 [1, 3] read?
Its IC50 is 100 to 500 nM.

With `Cc1nc(N[C@H](C)c2cccc(C(F)(F)CO)c2)c2c(n1)N1CCN=C1C(c1ccn(C)c(=O)c1)=C2` [Example 118] as the compound, how does the IC50 [1, 3] read?
Its IC50 is 100 to 500 nM.

What about the IC50 [2] of the same compound?
Its IC50 is less than 10 nM.

With `Cc1nc(N[C@H](C)c2cccc(C(F)(F)C(C)(C)O)c2F)c2c(n1)N1CCN=C1C(c1ccc(=O)n(C)c1)=C2` [Example 119] as the compound, how does the IC50 [1, 3] read?
Its IC50 is 50 to 100 nM.

With `Cc1nc(N[C@H](C)c2cccc3c2OCC3(F)F)c2c(n1)N1CCN=C1C(c1ccc(=O)n(C)c1)=C2` [Example 120] as the compound, how does the IC50 [1, 3] read?
Its IC50 is 100 to 500 nM.

With `Cc1nc(N[C@H](C)c2cccc3c2OCC3(F)F)c2c(n1)N1CCN=C1C(c1ccn(C)c(=O)c1)=C2` [Example 121] as the compound, how does the IC50 [1, 3] read?
Its IC50 is 100 to 500 nM.

`Cc1nc(N[C@H](C)c2cccc(C(F)F)c2F)c2c(n1)N1CCN=C1C(C1=CCN(S(C)(=O)=O)CC1)=C2` [Example 122] was tested. Which IC50 [1, 3] did it give?
Its IC50 is 50 to 100 nM.

What about the IC50 [2] of the same compound?
The IC50 was less than 10 nM.

Which IC50 [1, 3] does the source give for `Cc1nc(N[C@H](C)c2cccc(C(F)F)c2F)c2c(n1)N1CCN=C1C(C1=CCN(C(=O)CC#N)CC1)=C2` [Example 123] here?
Its IC50 is 50 to 100 nM.

And the IC50 [2]?
The IC50 was less than 10 nM.

Which IC50 [1, 3] does the source give for `Cc1nc(N[C@H](C)c2cccc(C(F)F)c2F)c2c(n1)N1CCN=C1C(C1=CCN(C(=O)C3(F)CC3)CC1)=C2` [Example 124] here?
Its IC50 is 50 to 100 nM.

And the IC50 [2]?
The IC50 was less than 10 nM.

`Cc1nc(N[C@H](C)c2cccc(C(F)F)c2F)c2c(n1)N1CCN=C1C(C1(O)CCN(C(=O)C3(F)CC3)CC1)=C2` [Example 125] was tested. Which IC50 [1, 3] did it give?
The IC50 was 50 to 100 nM.
